The values below come from patent publication US10314784B2, “Compositions of glycopyrronium salt for inhalation” (Novartis AG, priority 2006, dated 2019).

Data set [1] is described as follows: Particle size of micronised drug substance after jet milling. Format: physicochemical. The following applies: after micronisation in jet mill. The protocol:
37 g of magnesium […] are mixed with 1 kg of crystalline glycopyrronium bromide in a Turbula® blender for 5 hours. The resulting mixture is micronised using a Hosokawa Alpine® 100 AFG fluid bed opposed jet mill with the following parameters: classifier speed, 13000 rpm; milling gas pressure, 3.5 bar. The mill is equipped with 3 nozzles of 1.9 mm diameter.
The resulting mixture has a median particle size of about 3 micron (x90=7 micron, x50=3 micron, x10=1 micron). The magnesium stearate is well distributed over the drug substance surface.
Drug substance 1:50 g of magnesium stearate are mixed with 1 kg of crystalline glycopyrronium bromide in a Turbula® blender for 5 hours. The resulting mixture is micronised using a Hosokawa Alpine® 100 AFG fluid bed opposed jet mill (equipped with 3 nozzles of 1.9 mm diameter) with the following parameters: classifier speed, 13000 rpm; milling gas pressure, 3.5 bar, to give particles that have an average particle size of less than 5 microns.
Drug substance 2: 1 kg of crystalline glycopyrroninum bromide is micronised using a Hosokawa Alpine® 100 AFG fluid bed opposed jet mill (equipped with 3 nozzles of 1.9 mm diameter) with the following parameters: classifier speed, 13000 rpm; milling gas pressure, 3.5 bar, to give particles that have an average particle size of less than 5 microns.

The conditions of data set [2]: single administration of a metered dose, aerosol formulation, asthma; cited from earlier work.

As to `C[N+]1(C)CCC(OC(=O)C(O)(c2ccccc2)C2CCCC2)C1` (centres unmarked) [Drug substance 2, glycopyrroninum bromide], the average particle size result in data set [1] is on record as “less than 5 microns”.
As for `C[N+]1(C)CCC(OC(=O)C(O)(c2ccccc2)C2CCCC2)C1.[Br-]` (centres unmarked) [glycopyrrolate, 3-[(cyclopentyl-hydroxyphenylacetyl)oxy]-1,1-dimethyl-pyrrolidinium bromide], the duration of bronchodilation result in data set [2] is on record as “up to 12 hours”.
